Read-outs that look alike come from different tables or passages of the source.
How the values were obtained:
[1] = tested on: patients with Inflammatory Bowel Disease; settings: for Genotype frequencies: Insertion no / Genotype frequencies: Insertion yes: number of patients (%); for Allelic frequencies: Deletion allele / Allelic frequencies: Insertion Allele: number of alleles (%)
[2] = tested on: patients with Inflammatory Bowel Disease; settings: for Allele frequencies: Deletion allele / Allele frequencies: Insertion Allele: number of alleles (%); for Genotype: Insertion no / Genotype: Insertion yes / Genotype frequencies: Insertion no / Genotype frequencies: Insertion yes: number of patients
[3] = tested on: patients with IBD (Inflammatory Bowel Disease); test: Prospective cohort starting 2 mg/kg AZA for IBD (Example 2): response versus AOX3404A>G, TPMT activity and HLA-G markers
[4] = number of patients with side effect
[5] = Crohn's Disease Patients, Outcome Failure
[6] = Crohn's Disease Patients, Outcome Response
[7] = Ulcerative Colitis Patients, Outcome Failure
[8] = Ulcerative Colitis Patients, Outcome Response
[9] = of cohort of 182 patients starting 2 mg/kg

SMILES: CN(Cc1cnc2nc(N)nc(N)c2n1)c1ccc(C(=O)N[C@@H](CCC(=O)O)C(=O)O)cc1 [methotrexate]
- association between side effects and folate supplementation ([1]; 94 patients on folate, 39 never on folate): No association
- Genotype frequencies: Insertion no ([1]; Outcome Fail (91 pts.)): 21 (23%%)
- Genotype frequencies: Insertion yes ([1]; Outcome Fail (91 pts.)): 70 (77%)
- Allelic frequencies: Deletion allele ([1]; Outcome Failure): 86 (47%)
- Allelic frequencies: Insertion Allele ([1]; Outcome Failure): 96 (52%)
- Genotype frequencies: Insertion no ([1]; Outcome Response (91 pts.)): 40 (44%)
- Genotype frequencies: Insertion yes ([1]; Outcome Response (91 pts.)): 51 (56%)
- Allelic frequencies: Deletion allele ([1]; Outcome Response): 113 (62%)
- Allelic frequencies: Insertion Allele ([1]; Outcome Response): 69 (37%)
- Fisher's exact test OR ([1]; allelic frequencies, response vs failure): OR = 1.8
- Fisher's exact test OR ([1]; genotype frequencies, response vs fail): OR = 2.6,
- patients developed side effects ([1]; methotrexate group): 45 patients
- patients withdrawn from therapy as a direct consequence of their side-effect ([1]; methotrexate group): 21 patients
- abdominal pain [1, 4]: one
- alopecia [1, 4]: one
- haematological abnormalities including neutropenia [1, 4]: four
- minor infections [1, 4]: four
- mucositis [1, 4]: two
- muscle and joint pains [1, 4]: three
- nausea [1, 4]: 16
- skin rash [1, 4]: three
- transient LFT abnormalities [1, 4]: 10
- patients responded to treatment (percent) ([1]; of 187 patients completing at least three months of therapy): 51%
- patients responded to treatment ([1]; of 187 patients completing at least three months of therapy, response = steroid withdrawal or documented efficacy): 97 patients
- response to treatment between administration regimes ([1]; oral vs subcutaneous vs intramuscular induction progressing to oral): no difference in the response to treatment

SMILES: Cn1cnc([N+](=O)[O-])c1Sc1ncnc2nc[nH]c12 [azathioprine]
- Allele frequencies: Deletion allele ([2]; All Patients, Outcome Failure): 50 (64%)
- Allele frequencies: Insertion Allele ([2]; All Patients, Outcome Failure): 30 (36%)
- Allele frequencies: Deletion allele ([2]; All Patients, Outcome Response): 39 (34%)
- Allele frequencies: Insertion Allele ([2]; All Patients, Outcome Response): 75 (65%)
- Genotype: Insertion no ([2]; CD, Fail): 2
- Genotype: Insertion yes ([2]; CD, Fail): 17
- Genotype: Insertion no ([2]; CD, Response): 15
- Genotype: Insertion yes ([2]; CD, Response): 14
- Allele frequencies: Deletion allele [2, 5]: 14 (37%)
- Allele frequencies: Insertion Allele [2, 5]: 24 (63%)
- Allele frequencies: Deletion allele [2, 6]: 45 (69%)
- Allele frequencies: Insertion Allele [2, 6]: 18 (31%)
- Genotype: Insertion no ([2]; UC, Fail): 3
- Genotype: Insertion yes ([2]; UC, Fail): 18
- Genotype: Insertion no ([2]; UC, Response): 10
- Genotype: Insertion yes ([2]; UC, Response): 18
- Allele frequencies: Deletion allele [2, 7]: 16 (38%)
- Allele frequencies: Insertion Allele [2, 7]: 26 (62%)
- Allele frequencies: Deletion allele [2, 8]: 45 (62%)
- Allele frequencies: Insertion Allele [2, 8]: 21 (37%)
- Genotype frequencies: Insertion no ([2]; all patients, Outcome Fail): 21
- Genotype frequencies: Insertion yes ([2]; all patients, Outcome Fail): 30
- Genotype frequencies: Insertion no ([2]; all patients, Outcome Response): 50
- Genotype frequencies: Insertion yes ([2]; all patients, Outcome Response): 32
- Fisher's exact test OR ([2]; allele frequencies, All Patients): OR = 3.2
- Fisher's exact test OR ([2]; allele frequencies, Crohn's Disease Patients): OR = 4.2
- Fisher's exact test OR ([2]; allele frequencies, Ulcerative Colitis Patients): OR = 3.4
- Fisher's exact test OR ([2]; genotype frequencies, all patients): OR = 2.2,
- Fisher's exact test OR ([2]; genotype, CD): OR = 9,
- Fisher's exact test OR ([2]; genotype, UC): OR = 3,
- patients identified as responders to therapy ([2]; of 100 patients completing minimum three months, steroid withdrawal and Harvey Bradshaw index less than four): 50 patients
- withdrew due to intolerable side-effects ([2]; of the 140 patients recruited): 40
- non-responders [3, 9]: 44
- responders [3, 9]: 66
- those discontinuing treatment due to side effects [3, 9]: 72
- chance of responding ([3]; those with all adverse predictors): 14%
- chance of responding ([3]; those with no adverse predictors): 95%

Source: patent publication US20110105538A1, “DRUG RESPONSE MARKERS” (GUY'S & ST THOMAS'S NHS FOUNDATION TRUST, priority 2008, published 2011)
